# Measurements taken from PMC4512978, “Synthesis and evaluation in rats of homologous series of [^18F]-labeled dopamine D2/3 receptor agonists based on the 2-aminomethylchroman scaffold as potential PET tracers” (EJNMMI Research, 2015).
# Read-outs that look alike come from different tables or passages of the source.
# Tests used:
# [1] = Ex vivo tissue uptake after the PET scan (gamma-counter); assay type: in vivo, Sprague-Dawley rats
# Experimental: After the end of the PET scans (i.e., 98 ± 8 min after tracer injection), anesthetized animals were sacrificed by heart extirpation and dissected. Samples of brain and peripheral tissues were taken. All samples were weighed, and their radioactivity was measured in a gamma-counter.
# D2/3R = tested on: D2/3R; parameters: method as in PMID 24325578; settings: cited from earlier work; for Striatal SBR % change relative to control condition, Raclopride / Striatal SBR, Raclopride: 10 μM raclopride; for Striatal SBR % change relative to control condition, GTP / Striatal SBR, GTP: 100 μM GTP; for Striatal SBR, Control: radioligand only
# [2] = raclopride 1 mg/kg, after PET scan
# [3] = saline, after PET scan (98 ± 8 min p.i.)
# [4] = [^18F]FBu-AMC13 0.2 nM, [^18F]FEt-AMC15 5.8 ± 1.6 nM
compound,measurement,setting,value
"Oc1ccc2c(c1)O[C@@H](CNCc1ccc(OCCCC[18F])cc1)CC2 [[^18F]FBu-AMC13, (R)-2-[(4-(4-[^18F]fluorobutoxy)benzylamino)methyl]chroman-7-ol]","Ex vivo uptake, Adrenal glands",[1]; RAC,32.1±3.6 SUV
same,"Ex vivo uptake, Bladder",[1]; RAC,0.59±0.26 SUV
same,"Ex vivo uptake, Bone",[1]; RAC,0.77±0.46 SUV
same,"Ex vivo uptake, Bone marrow",[1]; RAC,2.18±0.09 SUV
same,"Ex vivo uptake, Duodenum",[1]; RAC,2.70±1.37 SUV
same,"Ex vivo uptake, Heart",[1]; RAC,0.36±0.03 SUV
same,"Ex vivo uptake, Kidney",[1]; RAC,2.36±0.54 SUV
same,"Ex vivo uptake, Large intestine",[1]; RAC,0.46±0.19 SUV
same,"Ex vivo uptake, Liver",[1]; RAC,1.99±0.86 SUV
same,"Ex vivo uptake, Lung",[1]; RAC,4.26±1.02 SUV
same,"Ex vivo uptake, Muscle",[1]; RAC,0.27±0.02 SUV
same,"Ex vivo uptake, Pancreas",[1]; RAC,3.54±0.64 SUV
same,"Ex vivo uptake, Plasma",[1]; RAC,0.16±0.03 SUV
same,"Ex vivo uptake, Prostate",[1]; RAC,1.27±0.40 SUV
same,"Ex vivo uptake, Small intestine",[1]; RAC,3.21±3.67 SUV
same,"Ex vivo uptake, Small intestine content",[1]; RAC,11.0±11.4 SUV
same,"Ex vivo uptake, Spleen",[1]; RAC,2.14±0.20 SUV
same,"Ex vivo uptake, Stomach",[1]; RAC,2.19±0.67 SUV
same,"Ex vivo uptake, Submandibular gland",[1]; RAC,2.12±0.85 SUV
same,"Ex vivo uptake, Thymus",[1]; RAC,1.54±0.12 SUV
same,"Ex vivo uptake, Urine",[1]; RAC,1.51±0.95 SUV
same,"Ex vivo uptake, Adrenal glands",[1]; SAL,34.5±3.5 SUV
same,"Ex vivo uptake, Bladder",[1]; SAL,0.43±0.16 SUV
same,"Ex vivo uptake, Bone",[1]; SAL,0.73±0.47 SUV
same,"Ex vivo uptake, Bone marrow",[1]; SAL,2.31±1.19 SUV
same,"Ex vivo uptake, Duodenum",[1]; SAL,3.24±1.2 SUV
same,"Ex vivo uptake, Heart",[1]; SAL,0.50±0.25 SUV
same,"Ex vivo uptake, Kidney",[1]; SAL,3.24±0.69 SUV
same,"Ex vivo uptake, Large intestine",[1]; SAL,0.60±0.13 SUV
same,"Ex vivo uptake, Liver",[1]; SAL,1.49±0.15 SUV
same,"Ex vivo uptake, Lung",[1]; SAL,4.85±2.15 SUV
same,"Ex vivo uptake, Muscle",[1]; SAL,0.33±0.13 SUV
same,"Ex vivo uptake, Pancreas",[1]; SAL,3.78±0.41 SUV
same,"Ex vivo uptake, Plasma",[1]; SAL,0.15±0.02 SUV
same,"Ex vivo uptake, Prostate",[1]; SAL,0.95±0.17 SUV
same,"Ex vivo uptake, Small intestine",[1]; SAL,4.52±5.94 SUV
same,"Ex vivo uptake, Small intestine content",[1]; SAL,20.9±31.4 SUV
same,"Ex vivo uptake, Spleen",[1]; SAL,2.48±1.27 SUV
same,"Ex vivo uptake, Stomach",[1]; SAL,1.90±0.26 SUV
same,"Ex vivo uptake, Submandibular gland",[1]; SAL,2.01±0.53 SUV
same,"Ex vivo uptake, Thymus",[1]; SAL,2.04±0.27 SUV
same,"Ex vivo uptake, Urine",[1]; SAL,0.63±0.53 SUV
same,"Ex vivo uptake, Brainstem",[1]; [2],1.25 ± 0.14 SUV
same,"Ex vivo uptake, Cerebellum",[1]; [2],0.73 ± 0.08 SUV
same,"Ex vivo uptake, Cortex",[1]; [2],1.01 ± 0.11 SUV
same,"Ex vivo uptake, Hippocampus",[1]; [2],1.21 ± 0.06 SUV
same,"Ex vivo uptake, Mean brain uptake",[1]; [2],1.03 ± 0.11 SUV
same,"Ex vivo uptake, Olfactory bulbs",[1]; [2],0.86 ± 0.09 SUV
same,"Ex vivo uptake, Parietal bone",[1]; [2],0.70 ± 0.18 SUV
same,"Ex vivo uptake, Pituitary",[1]; [2],2.72 ± 0.77 SUV
same,"Ex vivo uptake, Rest of brain",[1]; [2],1.10 ± 0.17 SUV
same,"Ex vivo uptake, Striatum",[1]; [2],1.21 ± 0.14 SUV
same,"Ex vivo uptake, Thalamus + hypothalamus",[1]; [2],1.07 ± 0.10 SUV
same,"Ex vivo uptake, Brainstem","[1]; saline, after PET scan",1.97 ± 0.42 (2) SUV
same,"Ex vivo uptake, Cerebellum","[1]; saline, after PET scan",1.11 ± 0.29 (8) SUV
same,"Ex vivo uptake, Cortex","[1]; saline, after PET scan",1.50 ± 0.32 (7) SUV
same,"Ex vivo uptake, Hippocampus","[1]; saline, after PET scan",1.50 ± 0.25 (6) SUV
same,"Ex vivo uptake, Mean brain uptake","[1]; saline, after PET scan",1.56 ± 0.33 SUV
same,"Ex vivo uptake, Olfactory bulbs","[1]; saline, after PET scan",1.85 ± 0.64 (3) SUV
same,"Ex vivo uptake, Parietal bone","[1]; saline, after PET scan",0.61 ± 0.17 SUV
same,"Ex vivo uptake, Pituitary","[1]; saline, after PET scan",3.19 ± 0.29 SUV
same,"Ex vivo uptake, Rest of brain","[1]; saline, after PET scan",1.60 ± 0.25 (4) SUV
same,"Ex vivo uptake, Thalamus + hypothalamus","[1]; saline, after PET scan",2.07 ± 0.70 (1) SUV
same,"Ex vivo uptake, Striatum",[1]; [3],1.60 ± 0.33 (5) SUV
same,"Striatal SBR % change relative to control condition, Raclopride",D2/3R; [4],−88%
same,"Striatal SBR, Raclopride",D2/3R; [4],0.10 ± 0.19
same,"Striatal SBR % change relative to control condition, Raclopride",D2/3R; tracer 4.5 ± 3.6 nM,−79%
same,"Striatal SBR, Raclopride",D2/3R; tracer 4.5 ± 3.6 nM,0.04 ± 0.22
same,"Striatal SBR % change relative to control condition, GTP",D2/3R; [4],−76%
same,"Striatal SBR, GTP",D2/3R; [4],0.20 ± 0.16
same,"Striatal SBR, Control",D2/3R; [4],0.85 ± 0.23
same,"Striatal SBR, Control",D2/3R; tracer 4.5 ± 3.6 nM,0.19 ± 0.18
"Oc1ccc2c(c1)O[C@@H](CNCCN1CCN(c3ccc(OCC[18F])cc3)CC1)CC2 [[^18F]FEt-AMC15, (R) 1-(4-(2-[^18F]fluoroethoxy)phenyl)-4-(4-(7-hydroxychroman-2-yl)-3-azabutyl)-piperazine]","Ex vivo uptake, Adipose tissue",[1]; RAC,0.10±0.05 SUV
same,"Ex vivo uptake, Adrenal glands",[1]; RAC,1.73±1.07 SUV
same,"Ex vivo uptake, Bladder",[1]; RAC,0.69±0.30 SUV
same,"Ex vivo uptake, Blood cells",[1]; RAC,0.05±0.04 SUV
same,"Ex vivo uptake, Bone",[1]; RAC,0.12±0.08 SUV
same,"Ex vivo uptake, Bone marrow",[1]; RAC,0.91±0.53 SUV
same,"Ex vivo uptake, Caecum",[1]; RAC,0.91±1.10 SUV
same,"Ex vivo uptake, Duodenum",[1]; RAC,22.8±36.6 SUV
same,"Ex vivo uptake, Heart",[1]; RAC,0.15±0.10 SUV
same,"Ex vivo uptake, Kidney",[1]; RAC,0.61±0.51 SUV
same,"Ex vivo uptake, Large intestine",[1]; RAC,1.20±1.48 SUV
same,"Ex vivo uptake, Large intestine content",[1]; RAC,0.06±0.04 SUV
same,"Ex vivo uptake, Liver",[1]; RAC,1.47±1.56 SUV
same,"Ex vivo uptake, Lung",[1]; RAC,1.19±0.40 SUV
same,"Ex vivo uptake, Muscle",[1]; RAC,0.15±0.11 SUV
same,"Ex vivo uptake, Pancreas",[1]; RAC,0.92±0.77 SUV
same,"Ex vivo uptake, Plasma",[1]; RAC,0.07±0.02 SUV
same,"Ex vivo uptake, Prostate",[1]; RAC,0.42±0.10 SUV
same,"Ex vivo uptake, Small intestine",[1]; RAC,11.1±18.4 SUV
same,"Ex vivo uptake, Small intestine content",[1]; RAC,60.5±104 SUV
same,"Ex vivo uptake, Spleen",[1]; RAC,1.62±1.15 SUV
same,"Ex vivo uptake, Stomach",[1]; RAC,1.73±0.75 SUV
same,"Ex vivo uptake, Submandibular gland",[1]; RAC,1.41±0.34 SUV
same,"Ex vivo uptake, Testes",[1]; RAC,0.04±0.01 SUV
same,"Ex vivo uptake, Thymus",[1]; RAC,0.43±0.15 SUV
same,"Ex vivo uptake, Urine",[1]; RAC,2.32±3.35 SUV
same,"Ex vivo uptake, Whole blood",[1]; RAC,0.12±0.08 SUV
same,"Ex vivo uptake, Adipose tissue",[1]; SAL,0.18±0.09 SUV
same,"Ex vivo uptake, Adrenal glands",[1]; SAL,1.53±0.58 SUV
same,"Ex vivo uptake, Bladder",[1]; SAL,0.23±0.05 SUV
same,"Ex vivo uptake, Blood cells",[1]; SAL,0.05±0.04 SUV
same,"Ex vivo uptake, Bone",[1]; SAL,0.14±0.03 SUV
same,"Ex vivo uptake, Bone marrow",[1]; SAL,0.98±0.36 SUV
same,"Ex vivo uptake, Caecum",[1]; SAL,0.15±0.10 SUV
same,"Ex vivo uptake, Duodenum",[1]; SAL,1.92±0.35 SUV
same,"Ex vivo uptake, Heart",[1]; SAL,0.11±0.04 SUV
same,"Ex vivo uptake, Kidney",[1]; SAL,0.40±0.10 SUV
same,"Ex vivo uptake, Large intestine",[1]; SAL,0.15±0.07 SUV
same,"Ex vivo uptake, Large intestine content",[1]; SAL,0.02±0.01 SUV
same,"Ex vivo uptake, Liver",[1]; SAL,0.86±0.23 SUV
same,"Ex vivo uptake, Lung",[1]; SAL,1.18±0.16 SUV
same,"Ex vivo uptake, Muscle",[1]; SAL,0.07±0.04 SUV
same,"Ex vivo uptake, Pancreas",[1]; SAL,0.75±0.27 SUV
same,"Ex vivo uptake, Plasma",[1]; SAL,0.14±0.11 SUV
same,"Ex vivo uptake, Prostate",[1]; SAL,0.38±0.15 SUV
same,"Ex vivo uptake, Small intestine",[1]; SAL,0.18±0.07 SUV
same,"Ex vivo uptake, Small intestine content",[1]; SAL,0.56±0.24 SUV
same,"Ex vivo uptake, Spleen",[1]; SAL,1.52±0.68 SUV
same,"Ex vivo uptake, Stomach",[1]; SAL,1.79±0.92 SUV
same,"Ex vivo uptake, Submandibular gland",[1]; SAL,1.51±0.26 SUV
same,"Ex vivo uptake, Testes",[1]; SAL,0.04±0.01 SUV
same,"Ex vivo uptake, Thymus",[1]; SAL,0.49±0.09 SUV
same,"Ex vivo uptake, Urine",[1]; SAL,0.69±0.33 SUV
same,"Ex vivo uptake, Whole blood",[1]; SAL,0.06±0.03 SUV
same,"Ex vivo uptake, Brainstem",[1]; [2],0.03 ± 0.01 SUV
same,"Ex vivo uptake, Cerebellum",[1]; [2],0.03 ± 0.01 SUV
same,"Ex vivo uptake, Cortex",[1]; [2],0.03 ± 0.01 SUV
same,"Ex vivo uptake, Hippocampus",[1]; [2],0.03 ± 0.01 SUV
same,"Ex vivo uptake, Mean brain uptake",[1]; [2],0.03 ± 0.01 SUV
same,"Ex vivo uptake, Olfactory bulbs",[1]; [2],0.03 ± 0.02 SUV
same,"Ex vivo uptake, Parietal bone",[1]; [2],0.08 ± 0.03 SUV
same,"Ex vivo uptake, Pituitary",[1]; [2],1.08 ± 0.27 SUV
same,"Ex vivo uptake, Rest of brain",[1]; [2],0.03 ± 0.02 SUV
same,"Ex vivo uptake, Striatum",[1]; [2],0.03 ± 0.01 SUV
same,"Ex vivo uptake, Thalamus + hypothalamus",[1]; [2],0.03 ± 0.01 SUV
same,"Ex vivo uptake, Brainstem","[1]; saline, after PET scan",0.03 ± 0.004 SUV
same,"Ex vivo uptake, Cerebellum","[1]; saline, after PET scan",0.03 ± 0.01 SUV
same,"Ex vivo uptake, Cortex","[1]; saline, after PET scan",0.03 ± 0.003 SUV
same,"Ex vivo uptake, Hippocampus","[1]; saline, after PET scan",0.03 ± 0.02 SUV
same,"Ex vivo uptake, Mean brain uptake","[1]; saline, after PET scan",0.03 ± 0.01 SUV
same,"Ex vivo uptake, Olfactory bulbs","[1]; saline, after PET scan",0.03 ± 0.001 SUV
same,"Ex vivo uptake, Parietal bone","[1]; saline, after PET scan",0.09 ± 0.03 SUV
same,"Ex vivo uptake, Pituitary","[1]; saline, after PET scan",1.36 ± 0.30 SUV
same,"Ex vivo uptake, Rest of brain","[1]; saline, after PET scan",0.02 ± 0.02 SUV
same,"Ex vivo uptake, Thalamus + hypothalamus","[1]; saline, after PET scan",0.03 ± 0.01 SUV
same,"Ex vivo uptake, Striatum",[1]; [3],0.02 ± 0.02 SUV
same,"Striatal SBR % change relative to control condition, Raclopride",D2/3R; [4],−60%
same,"Striatal SBR, Raclopride",D2/3R; [4],0.65 ± 0.37
same,"Striatal SBR % change relative to control condition, GTP",D2/3R; [4],−59%
same,"Striatal SBR, GTP",D2/3R; [4],0.67 ± 0.28
same,"Striatal SBR, Control",D2/3R; [4],1.64 ± 1.04
